# Laboratory results as given in patent EP0742015A1, “Prodrugs for beta-lactamase and uses thereof” (Bristol-Myers Squibb Company, priority 1990, dated 1992).
# What was measured:
# [1] = target: T1, B. cereus β-lactamase (II) (Bacillus cereus, UniProt P04190); type: biochemical
# T1 sequence (P04190 31-257): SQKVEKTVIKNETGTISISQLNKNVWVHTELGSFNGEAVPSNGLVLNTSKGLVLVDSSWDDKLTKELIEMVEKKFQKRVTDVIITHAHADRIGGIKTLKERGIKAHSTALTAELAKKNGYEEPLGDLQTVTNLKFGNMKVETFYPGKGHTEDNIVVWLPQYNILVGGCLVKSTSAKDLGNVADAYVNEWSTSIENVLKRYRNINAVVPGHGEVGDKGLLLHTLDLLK
# [2] = target: T2, BCP II (Bacillus cereus penicillinase) (Bacillus cereus, UniProt P04190); assay: Conversion of the cephalosporin-mitomycin prodrug by BCP II in PBS, followed by TLC; type: biochemical; settings: 0.3 mg compound in PBS (1 mL), BCP II 10 µL (4.1 mg/mL)
# T2 sequence (P04190 31-257): T1 sequence (P04190 31-257)
# Protocol: To a greyish blue solution of the title compound (0.3 mg) in PBS (1 mL) was added BCP II (Bacillus cereus penicillinase, 10 µL, protein concentration = 4.1 mg/mL). Immediately the color changed to blue.
# [3] = target: B. cereus β-lactamase (Bacillus cereus, UniProt P04190); type: biochemical; settings: substrate 100 µg/ml, 0.05 M phosphate buffer, pH 7.0, 25°C
# [4] = target: L6-lactamase (B. cereus) conjugate (Bacillus cereus, UniProt P04190); type: biochemical; settings: pH 7
# [5] = target: Sigma penicillinase from E. cloacae (Enterobacter cloacae, UniProt P05364); assay: Specific activity of β-lactamases for cephalosporin substrates, spectrophotometric; type: biochemical; settings: substrate 100 µg/ml, 0.05 M phosphate buffer, pH 7.0, 25°C
# Chain of Sigma penicillinase from E. cloacae (P05364 21-381): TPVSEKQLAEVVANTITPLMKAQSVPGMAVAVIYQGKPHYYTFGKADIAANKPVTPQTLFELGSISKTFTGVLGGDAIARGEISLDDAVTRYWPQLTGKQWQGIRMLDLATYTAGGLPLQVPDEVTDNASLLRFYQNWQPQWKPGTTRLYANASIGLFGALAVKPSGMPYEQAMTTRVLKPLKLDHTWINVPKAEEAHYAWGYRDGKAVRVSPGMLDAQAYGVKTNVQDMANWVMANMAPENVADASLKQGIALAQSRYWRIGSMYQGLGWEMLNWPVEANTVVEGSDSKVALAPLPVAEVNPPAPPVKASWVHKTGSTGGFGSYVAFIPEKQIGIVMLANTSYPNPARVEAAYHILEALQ
# Protocol: The specific activities of selected β-lactamases for ADR-ceph were examined. These enzymes were B. cereus β-lactamase, lactamase-L6 conjugate, Sigma penicillinase from E. cloacae (Sigma Chemical) and P99 cephalosporinase from E. cloacae. All enzymes were diluted to give protein concentrations of 0.20 ± 0.01 mg/ml (with respect to β-lactamase). Assays were performed spectrophotometrically to 0.05 M phosphate buffer, pH 7.0, at 25°C. Cephaloridine was used as a reference substrate for the enzymes.
# P99 cephalosporinase had the highest specific activity for both cephaloridine and ADR-ceph. […] The Sigma "penicillinase" had the lowest activity of all the preparations. […] The differences in activity is probably due to differences in purity between the two preparations.
# [6] = target: P99 cephalosporinase from E. cloacae (Enterobacter cloacae, UniProt P05364); type: biochemical; settings: pH 7
# Chain of P99 cephalosporinase from E. cloacae (P05364 21-381): as above
# [7] = target: β-lactamase from B. cereus (Bacillus cereus, UniProt P04190); assay: Release of adriamycin from ADR-ceph in human plasma at 37°C, HPLC; type: biochemical; settings: human plasma 37°C, ADR-ceph 572 µg/ml, β-lactamase 0.45 µg/ml
# Protocol: The ability of the purified β-lactamase from B. cereus and the lactamase-L6 conjugate to catalyze the release of adriamycin from ADR-ceph was evaluated in human plasma at 37°C.
# (§1) Stock solutions of the β-lactamase and lactamase-L6 conjugate were prepared in 0.05 M Hepes buffer (pH7). Aliquots of these stock solutions were added to solutions of ADR-ceph in human plasma thermostated at 37°C. The final concentration of ADR-ceph was 572 µg/ml in the β-lactamase experiment and 896 µg/ml in the L6-lactamase experiment; and the final concentrations of β-lactamase and L6-lactamase conjugate were 0.45 µg/ml and 5.4µg/ml, respectively. Aliquots were withdrawn periodically and were added to two volumes of cold methanol (4°C). The precipitated proteins were removed by centrifugation. The supernatants were analyzed by HPLC using a Waters Associates C18 Radial Pak cartridge (8x100 mm). The column was eluted at 2.0 mL/min with a mobile phase of 60% of 0.05 M ammonium phosphate (pH 6.5) containing 5% acetonitrile and 40% of a mixture of acetonitrile-water (80:20). The peaks were detected by uv at 254 nm. In these assays the respective retention times for adriamycin and ADR-ceph were 3.8 and 7.5 minutes.
# [8] = Stability of ADR-ceph in rat plasma at 37°C, HPLC; type: in vitro ADME
# Protocol: as §1
# (§2) Using the same HPLC assay described in Example 2.2.2 the respective half lives at 37°C of ADR-ceph in rat plasma, buffer at pH 7.4, and human plasma are 8, 20 and ≧ 12 hours (Figure 9).
# [9] = Stability of ADR-ceph in buffer at pH 7.4 at 37°C, HPLC; type: physicochemical; settings: buffer at pH 7.4, 37°C
# Protocol: as §1, §2
# [10] = Stability of ADR-ceph in human plasma at 37°C, HPLC; type: in vitro ADME
# Protocol: as §1, §2
# [11] = target: T3, B. cereus β-lactamase (Bacillus cereus, UniProt P04190); type: biochemical; settings: CM 50 µM in PBS at 37° C, 3 µg total protein/ml, partially purified enzyme
# T3 construct: purchased Sigma Chem. Co
# T3 sequence (P04190 31-257): T1 sequence (P04190 31-257)
# [12] = test system: E. coli β-lactamase; assay: Hydrolysis of CM by commercially available β-lactamase in PBS at 37° C, HPLC; type: biochemical; settings: CM 50 µM in PBS at 37° C, 3 µg total protein/ml, partially purified enzyme
# [13] = test system: human lung adenocarcinoma cell line, H2981
# [14] = test system: Balb C nu/nu mice; settings: mouse, in vivo, iv
# [15] = in vitro; settings: mouse, plasma
# [16] = physchem; settings: imdm cell growth medium
# [17] = test system: H2981 lung cells; assay: In vitro cytotoxicity of CM with L6-β-lactamase conjugate, 3H-thymidine incorporation; settings: cells exposed to L6-β-lactamase conjugate 1 hr at 37° C, washed, then CM
smiles,measurement,setting,value
"O=C(O)CN(CCN(CC(=O)O)CC(=O)O)CC(=O)O [EDTA, reference compound]",inhibition of the enzyme activity,[1],completely inhibited
"COC12C(COC(N)=O)C3=C(C(=O)C(C)=C(NCC4=C(C(=O)O)N5C(=O)C(NC(=O)Cc6ccccc6)C5SC4)C3=O)N1CC1NC12 (centres unmarked) [Example 1.2.5, 7-Phenylacetamido-3-(N^7-mitomycin C)-8-oxo-5-thia-1-azabicyclo[4.2.0]oct-2-ene-2-carboxylic acid]",conversion to mitomycin C,[2],complete conversion to mitomycin C
"O=C(Cc1cccs1)N[C@@H]1C(=O)N2C(C(=O)[O-])=C(C[n+]3ccccc3)CS[C@H]12 [Cephaloridine, reference compound]","Hydrolysis, µmoles/min/µg protein",[3],0.038 µmoles/min/µg protein
same,"Hydrolysis, µmoles/min/µg protein",[4],0.045 µmoles/min/µg protein
same,"Hydrolysis, µmoles/min/µg protein",[5],0.026 µmoles/min/µg protein
same,"Hydrolysis, µmoles/min/µg protein",[6],0.30 µmoles/min/µg protein
"COc1cccc2c1C(=O)c1c(O)c3c(c(O)c1C2=O)C[C@@](O)(C(=O)CO)C[C@@H]3O[C@H]1C[C@H](NC(=O)OCC2=C(C(=O)O)N3C(=O)C(NC(=O)Cc4ccccc4)C3SC2)[C@H](O)[C@H](C)O1 (some centres unmarked) [ADR-ceph, 3-[[(N-adriamycinyl)carbonyloxy]methyl]-7-phenylacetamido-8-oxo-5-thia-1-azabicyclo[4.2.0]oct-2-ene-2-carboxylic acid]","hydrolysis of ADR-ceph, release of adriamycin",[7],efficiently hydrolyzed
same,"Hydrolysis, µmoles/min/µg protein",[3],0.016 µmoles/min/µg protein
same,"Hydrolysis, µmoles/min/µg protein",[4],0.021 µmoles/min/µg protein
same,"Hydrolysis, µmoles/min/µg protein",[5],0.0030 µmoles/min/µg protein
same,"Hydrolysis, µmoles/min/µg protein",[6],0.060 µmoles/min/µg protein
same,half-life,[8],8 h
same,half-life,[9],20 h
same,half-life,[10],≥ 12 h
O=C(Cc1ccccc1)NC1C(=O)N2C(C(=O)O)=C(COC(=O)Nc3ccc(N(CCCl)CCCl)cc3)CSC12 (centres unmarked) [CM],Km,[1]; CM as substrate,25 µM
same,Vmax,[1]; CM as substrate,250 µmol/min/mg
same,"hydrolysis of CM, release of PDM",[11],"able to hydrolyze CM to release the nitrogen mustard, PDM"
same,"hydrolysis of CM, release of PDM",[12],"able to hydrolyze CM to release the nitrogen mustard, PDM"
same,IC50,[13],~100 µM
same,cytotoxic activity of CM with purified B. cereus β-lactamase (II),[13],enhanced the cytotoxic activity of CM to the level observed for PDM
same,enhancement of the activity of CM by β-lactamases,[13],50-100 fold
same,"difference in toxicity on a molar basis, CM versus PDM",[14],> 11 fold
same,dose up to which no toxicity was observed,[14],≥ 900 µg/injection
same,"metabolised at 2.5 h, 500 µM",[15],12%
same,half-life at 500 µM,[16],0.5 h
same,cytotoxic effect of CM with the antibody-β-lactamase conjugate,[17],enhanced cytotoxic effect
